Reference: ChEMBL document CHEMBL5715954, “Silencing c-Myc translation as a therapeutic strategy through targeting PI3Kδ and CK1ε in hematological malignancies” (Blood, 2017)

Assays:
Design in all cases: scale not given: the % may be the effect or the level left
[1] = biological target: Epithelial discoidin domain-containing receptor 1 (Homo sapiens) (UniProt Q08345); assay: Inhibition of human DDR1 assessed as enzyme activity at 1 uM using KKSRGDYMTMQIG as substrate preincubated for 20 mins followed by [gamma-33P]-ATP addition and measured after 120 mins by radiometric Hot-SpotSM Kinase assay relative to control
[2] = biological target: T1, Dual specificity tyrosine-phosphorylation-regulated kinase 3 (Homo sapiens) (UniProt O43781); assay: Inhibition of human DYRK3 assessed as enzyme activity at 1 uM using RRRFRPASPLRGPPK as substrate preincubated for 20 mins followed by [gamma-33P]-ATP addition and measured after 120 mins by radiometric Hot-SpotSM Kinase assay relative to control
T1 sequence (whole entry): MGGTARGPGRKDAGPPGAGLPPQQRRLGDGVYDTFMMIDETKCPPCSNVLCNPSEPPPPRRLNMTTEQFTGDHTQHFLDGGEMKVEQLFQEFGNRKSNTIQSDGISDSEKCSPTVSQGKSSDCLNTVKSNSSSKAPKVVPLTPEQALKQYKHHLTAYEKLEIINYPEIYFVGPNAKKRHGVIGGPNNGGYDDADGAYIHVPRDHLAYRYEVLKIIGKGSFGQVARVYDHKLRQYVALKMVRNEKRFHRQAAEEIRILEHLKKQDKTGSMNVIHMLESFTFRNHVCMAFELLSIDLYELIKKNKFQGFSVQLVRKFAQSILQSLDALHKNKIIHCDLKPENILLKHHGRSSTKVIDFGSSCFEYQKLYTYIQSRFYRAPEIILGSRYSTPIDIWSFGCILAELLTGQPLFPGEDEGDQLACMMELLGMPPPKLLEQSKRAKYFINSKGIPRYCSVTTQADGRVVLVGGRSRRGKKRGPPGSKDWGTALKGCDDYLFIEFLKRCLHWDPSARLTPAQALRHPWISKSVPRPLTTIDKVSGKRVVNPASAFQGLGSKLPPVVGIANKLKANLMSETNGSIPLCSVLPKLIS

[3] = biological target: Serine/threonine-protein kinase B-raf (Homo sapiens) (UniProt P15056); assay: Inhibition of human BRAF assessed as enzyme activity at 1 uM using MEK1 (K97R) as substrate preincubated for 20 mins followed by [gamma-33P]-ATP addition and measured after 120 mins by radiometric Hot-SpotSM Kinase assay relative to control
[4] = biological target: CDC7/DBF4 (Cell division cycle 7-related protein kinase/Activator of S phase kinase) (Homo sapiens) (UniProt Q9UBU7+O00311); assay: Inhibition of human CDC7/DBF4 assessed as enzyme activity at 1 uM using KTFCGTPEYLAPEVRREPRILSEEEQEMFRDFDYIADWC as substrate preincubated for 20 mins followed by [gamma-33P]-ATP addition and measured after 120 mins by radiometric Hot-SpotSM Kinase assay relative to control; type: protein-complex assay
[5] = biological target: T2, Mitogen-activated protein kinase 13 (Homo sapiens) (UniProt O15264); assay: Inhibition of human P38d assessed as enzyme activity at 1 uM using myelin basic protein as substrate preincubated for 20 mins followed by [gamma-33P]-ATP addition and measured after 120 mins by radiometric Hot-SpotSM Kinase assay relative to control
T2 sequence (whole entry): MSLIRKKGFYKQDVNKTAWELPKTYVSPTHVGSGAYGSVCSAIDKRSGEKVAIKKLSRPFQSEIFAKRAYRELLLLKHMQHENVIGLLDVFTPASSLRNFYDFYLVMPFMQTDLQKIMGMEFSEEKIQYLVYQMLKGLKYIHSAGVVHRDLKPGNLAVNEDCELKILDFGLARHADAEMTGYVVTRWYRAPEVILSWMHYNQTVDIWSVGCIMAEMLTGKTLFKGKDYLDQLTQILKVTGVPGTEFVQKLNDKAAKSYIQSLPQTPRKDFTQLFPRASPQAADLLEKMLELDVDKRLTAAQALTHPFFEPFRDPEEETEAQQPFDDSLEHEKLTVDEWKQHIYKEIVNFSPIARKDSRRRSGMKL

[6] = biological target: Serine/threonine-protein kinase SIK3 (Homo sapiens) (UniProt Q9Y2K2); assay: Inhibition of human SIK3 assessed as enzyme activity at 1 uM using AMARAASAAALARRR as substrate preincubated for 20 mins followed by [gamma-33P]-ATP addition and measured after 120 mins by radiometric Hot-SpotSM Kinase assay relative to control
[7] = biological target: T3, Serine/threonine-protein kinase LATS2 (Homo sapiens) (UniProt Q9NRM7); assay: Inhibition of human LATS2 assessed as enzyme activity at 1 uM using KKRNRRLSVA as substrate preincubated for 20 mins followed by [gamma-33P]-ATP addition and measured after 120 mins by radiometric Hot-SpotSM Kinase assay relative to control
T3 sequence (whole entry): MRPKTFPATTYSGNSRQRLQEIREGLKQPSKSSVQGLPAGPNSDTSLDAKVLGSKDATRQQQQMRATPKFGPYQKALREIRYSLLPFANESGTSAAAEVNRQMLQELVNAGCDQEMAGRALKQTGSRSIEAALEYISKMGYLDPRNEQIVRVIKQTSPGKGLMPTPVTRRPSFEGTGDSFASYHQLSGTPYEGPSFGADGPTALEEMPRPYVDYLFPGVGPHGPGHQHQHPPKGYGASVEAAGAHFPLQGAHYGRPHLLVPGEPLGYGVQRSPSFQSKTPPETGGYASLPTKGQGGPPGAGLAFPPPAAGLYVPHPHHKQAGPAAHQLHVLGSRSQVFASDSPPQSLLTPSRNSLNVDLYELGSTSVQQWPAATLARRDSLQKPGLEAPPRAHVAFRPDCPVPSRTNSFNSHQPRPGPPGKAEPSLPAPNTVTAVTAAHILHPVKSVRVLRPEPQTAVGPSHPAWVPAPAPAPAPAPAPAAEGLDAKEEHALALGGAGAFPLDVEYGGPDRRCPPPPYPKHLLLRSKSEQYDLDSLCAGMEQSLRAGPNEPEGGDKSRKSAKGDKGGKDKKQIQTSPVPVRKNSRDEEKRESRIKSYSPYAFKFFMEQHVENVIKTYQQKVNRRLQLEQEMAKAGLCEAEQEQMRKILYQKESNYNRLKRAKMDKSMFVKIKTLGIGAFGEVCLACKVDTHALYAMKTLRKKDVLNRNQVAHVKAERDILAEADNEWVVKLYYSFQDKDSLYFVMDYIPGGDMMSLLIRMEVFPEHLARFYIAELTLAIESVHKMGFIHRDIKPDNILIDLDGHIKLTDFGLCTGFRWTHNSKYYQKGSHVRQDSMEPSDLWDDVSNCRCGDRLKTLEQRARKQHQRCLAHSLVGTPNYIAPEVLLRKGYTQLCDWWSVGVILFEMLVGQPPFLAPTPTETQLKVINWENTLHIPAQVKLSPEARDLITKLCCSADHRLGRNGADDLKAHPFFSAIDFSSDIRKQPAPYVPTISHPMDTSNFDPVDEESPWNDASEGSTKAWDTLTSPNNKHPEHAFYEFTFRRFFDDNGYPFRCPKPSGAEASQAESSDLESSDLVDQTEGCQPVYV

CDC7/DBF4 (Cell division cycle 7-related protein kinase/Activator of S phase kinase) (Homo sapiens), sequence (O00311 whole entry, looked up): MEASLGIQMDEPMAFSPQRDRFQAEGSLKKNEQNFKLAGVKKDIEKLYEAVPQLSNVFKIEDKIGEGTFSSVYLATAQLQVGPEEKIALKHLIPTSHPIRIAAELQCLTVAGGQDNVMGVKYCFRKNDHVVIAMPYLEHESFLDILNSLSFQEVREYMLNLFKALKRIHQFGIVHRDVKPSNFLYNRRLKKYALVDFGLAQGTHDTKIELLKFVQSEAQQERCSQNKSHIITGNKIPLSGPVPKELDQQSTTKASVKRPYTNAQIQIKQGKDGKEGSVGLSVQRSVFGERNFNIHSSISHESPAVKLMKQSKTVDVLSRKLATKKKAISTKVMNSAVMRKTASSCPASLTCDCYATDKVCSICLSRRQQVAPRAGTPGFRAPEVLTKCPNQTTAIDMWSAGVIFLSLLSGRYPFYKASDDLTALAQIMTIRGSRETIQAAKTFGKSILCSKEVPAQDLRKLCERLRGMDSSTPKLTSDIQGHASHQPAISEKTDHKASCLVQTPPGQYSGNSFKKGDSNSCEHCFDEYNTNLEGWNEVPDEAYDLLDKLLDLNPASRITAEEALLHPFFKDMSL
CDC7/DBF4 (Cell division cycle 7-related protein kinase/Activator of S phase kinase) (Homo sapiens), sequence (Q9UBU7 whole entry, looked up): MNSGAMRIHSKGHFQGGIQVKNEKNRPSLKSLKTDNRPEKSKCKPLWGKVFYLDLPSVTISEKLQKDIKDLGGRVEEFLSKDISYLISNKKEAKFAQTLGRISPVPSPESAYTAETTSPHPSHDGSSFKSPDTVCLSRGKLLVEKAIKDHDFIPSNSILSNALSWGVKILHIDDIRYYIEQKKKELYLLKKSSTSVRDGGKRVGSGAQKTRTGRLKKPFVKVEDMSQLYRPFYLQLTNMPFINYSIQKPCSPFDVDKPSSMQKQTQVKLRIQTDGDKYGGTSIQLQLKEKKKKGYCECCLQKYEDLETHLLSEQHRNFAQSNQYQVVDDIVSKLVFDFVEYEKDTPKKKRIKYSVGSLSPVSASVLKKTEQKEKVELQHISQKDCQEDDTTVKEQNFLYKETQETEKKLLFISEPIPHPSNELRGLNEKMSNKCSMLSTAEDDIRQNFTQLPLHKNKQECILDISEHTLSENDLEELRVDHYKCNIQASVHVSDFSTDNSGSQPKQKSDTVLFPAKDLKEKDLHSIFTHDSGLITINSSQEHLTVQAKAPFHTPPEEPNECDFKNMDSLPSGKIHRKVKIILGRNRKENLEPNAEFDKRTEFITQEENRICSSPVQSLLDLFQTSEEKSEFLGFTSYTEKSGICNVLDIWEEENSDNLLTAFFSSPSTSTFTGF
Serine/threonine-protein kinase B-raf (Homo sapiens), sequence (P15056 whole entry): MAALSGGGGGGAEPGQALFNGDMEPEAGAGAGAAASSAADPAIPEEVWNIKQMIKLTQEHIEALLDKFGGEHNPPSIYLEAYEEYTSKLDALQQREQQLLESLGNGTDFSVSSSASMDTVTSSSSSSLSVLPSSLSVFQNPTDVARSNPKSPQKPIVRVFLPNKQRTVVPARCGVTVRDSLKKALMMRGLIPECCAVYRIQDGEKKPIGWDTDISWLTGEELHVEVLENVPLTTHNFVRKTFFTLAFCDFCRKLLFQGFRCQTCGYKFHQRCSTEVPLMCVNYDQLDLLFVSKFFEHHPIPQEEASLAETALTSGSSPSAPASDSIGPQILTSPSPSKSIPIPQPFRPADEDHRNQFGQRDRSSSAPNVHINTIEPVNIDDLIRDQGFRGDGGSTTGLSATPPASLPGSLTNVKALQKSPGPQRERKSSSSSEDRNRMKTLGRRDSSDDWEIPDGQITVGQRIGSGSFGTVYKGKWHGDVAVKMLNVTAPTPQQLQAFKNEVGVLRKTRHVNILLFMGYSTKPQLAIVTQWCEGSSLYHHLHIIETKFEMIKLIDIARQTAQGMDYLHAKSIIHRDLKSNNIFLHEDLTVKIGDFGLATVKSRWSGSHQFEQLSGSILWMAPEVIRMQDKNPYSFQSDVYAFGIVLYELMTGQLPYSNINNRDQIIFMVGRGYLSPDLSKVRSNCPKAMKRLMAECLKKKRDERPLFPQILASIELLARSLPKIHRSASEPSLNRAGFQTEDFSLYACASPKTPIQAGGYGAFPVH
Epithelial discoidin domain-containing receptor 1 (Homo sapiens), sequence (Q08345 whole entry, the tested form may be a part): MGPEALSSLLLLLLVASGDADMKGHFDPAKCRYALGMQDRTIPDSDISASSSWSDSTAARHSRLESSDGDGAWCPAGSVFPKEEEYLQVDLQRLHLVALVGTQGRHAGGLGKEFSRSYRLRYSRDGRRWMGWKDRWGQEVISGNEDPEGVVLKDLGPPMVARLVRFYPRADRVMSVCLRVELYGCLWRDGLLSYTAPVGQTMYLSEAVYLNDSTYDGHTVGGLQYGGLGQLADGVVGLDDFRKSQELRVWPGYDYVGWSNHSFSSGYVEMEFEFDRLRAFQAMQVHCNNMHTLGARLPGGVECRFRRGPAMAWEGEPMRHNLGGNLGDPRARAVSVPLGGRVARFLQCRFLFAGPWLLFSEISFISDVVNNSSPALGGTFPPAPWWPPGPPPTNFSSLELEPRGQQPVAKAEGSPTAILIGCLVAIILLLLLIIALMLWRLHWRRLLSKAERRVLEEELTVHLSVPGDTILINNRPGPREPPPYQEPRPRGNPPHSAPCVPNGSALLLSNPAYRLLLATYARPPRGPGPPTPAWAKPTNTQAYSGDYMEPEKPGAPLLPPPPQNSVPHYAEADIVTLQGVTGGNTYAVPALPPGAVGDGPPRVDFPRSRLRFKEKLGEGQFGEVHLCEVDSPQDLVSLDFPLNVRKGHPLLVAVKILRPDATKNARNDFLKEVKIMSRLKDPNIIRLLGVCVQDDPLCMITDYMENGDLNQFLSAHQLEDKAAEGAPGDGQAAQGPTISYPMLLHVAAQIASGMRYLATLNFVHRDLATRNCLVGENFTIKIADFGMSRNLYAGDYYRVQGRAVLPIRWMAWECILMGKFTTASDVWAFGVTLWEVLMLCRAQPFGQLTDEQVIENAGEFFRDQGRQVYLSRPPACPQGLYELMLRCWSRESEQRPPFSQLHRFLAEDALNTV
Serine/threonine-protein kinase SIK3 (Homo sapiens), sequence (Q9Y2K2 whole entry, looked up): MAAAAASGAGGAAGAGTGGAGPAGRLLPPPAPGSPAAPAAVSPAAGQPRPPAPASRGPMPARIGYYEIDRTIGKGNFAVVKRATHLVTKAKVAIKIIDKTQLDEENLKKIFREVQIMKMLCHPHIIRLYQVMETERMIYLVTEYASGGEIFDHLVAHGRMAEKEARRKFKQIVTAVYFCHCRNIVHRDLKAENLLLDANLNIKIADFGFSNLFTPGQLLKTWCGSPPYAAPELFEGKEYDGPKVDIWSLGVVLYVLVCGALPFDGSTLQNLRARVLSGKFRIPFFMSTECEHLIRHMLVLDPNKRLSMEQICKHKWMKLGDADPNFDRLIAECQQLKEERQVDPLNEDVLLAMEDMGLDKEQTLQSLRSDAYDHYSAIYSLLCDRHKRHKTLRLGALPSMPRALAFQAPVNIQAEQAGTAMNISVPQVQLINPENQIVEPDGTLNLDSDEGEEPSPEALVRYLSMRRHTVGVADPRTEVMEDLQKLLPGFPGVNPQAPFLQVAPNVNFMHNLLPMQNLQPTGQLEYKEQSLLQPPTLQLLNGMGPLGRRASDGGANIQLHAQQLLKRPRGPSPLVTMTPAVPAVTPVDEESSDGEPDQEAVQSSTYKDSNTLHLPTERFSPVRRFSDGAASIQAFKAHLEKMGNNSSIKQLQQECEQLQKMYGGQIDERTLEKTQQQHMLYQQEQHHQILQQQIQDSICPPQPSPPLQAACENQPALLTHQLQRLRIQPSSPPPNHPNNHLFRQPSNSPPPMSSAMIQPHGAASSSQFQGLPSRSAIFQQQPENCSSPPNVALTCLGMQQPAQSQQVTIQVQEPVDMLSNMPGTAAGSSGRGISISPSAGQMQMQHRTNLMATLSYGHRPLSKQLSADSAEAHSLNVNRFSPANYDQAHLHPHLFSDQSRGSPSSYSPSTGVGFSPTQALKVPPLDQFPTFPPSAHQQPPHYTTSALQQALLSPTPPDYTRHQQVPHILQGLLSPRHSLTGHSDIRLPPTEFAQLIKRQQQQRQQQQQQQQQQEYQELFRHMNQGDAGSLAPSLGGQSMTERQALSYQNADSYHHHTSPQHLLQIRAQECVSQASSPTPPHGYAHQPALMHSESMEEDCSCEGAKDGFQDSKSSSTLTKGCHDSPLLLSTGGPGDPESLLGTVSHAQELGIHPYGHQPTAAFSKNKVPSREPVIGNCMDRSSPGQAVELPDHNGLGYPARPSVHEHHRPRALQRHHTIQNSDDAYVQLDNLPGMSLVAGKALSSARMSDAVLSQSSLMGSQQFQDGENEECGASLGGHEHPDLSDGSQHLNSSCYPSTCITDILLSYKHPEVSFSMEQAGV

Structure (SMILES)	Activity [1]	Activity [2]	Activity [3]	Activity [4]	Activity [5]	Activity [6]	Activity [7]
CC[C@H](Nc1ncnc2[nH]cnc12)c1nc2cccc(F)c2c(=O)n1-c1ccccc1	83.8%	96.9%	87.6%	91.6%	96.5%	93.8%	91.5%
C[C@H](Nc1ncnc2nc[nH]c12)c1cc2cccc(Cl)c2c(=O)n1-c1ccccc1	88.6%	97.8%	85.9%	93.8%	105%	92.6%	91.9%
CC(C)Oc1ccc(-c2nn([C@@H](C)c3oc4ccc(F)cc4c(=O)c3-c3cccc(F)c3)c3ncnc(N)c23)cc1F [UMBRALISIB]	83.1%	96.9%	92.2%	92%	104%	96.6%	103%
